Numbered stars: 1 amine (or outer) side, 2 acyl side, 3 side chain; on linkers, the order of the positions; unused ones are H or OH. Square brackets hold non-standard residues; d marks the D form. Peptide text beside a SMILES is read from it. Trp(5-F) = N[C@@H](Cc1c[nH]c2ccc(F)cc12)C(=O)O; X1 = O=C(CCSCc1cccc(CSCCN[*:1])c1)[*:2]; 2Nal = N[C@@H](Cc1ccc2ccccc2c1)C(=O)O; Pip = O=C(O)[C@@H]1CCCCN1

Common to all, as to format: binding
The target of assay [1] is T1, PCSK9 (Homo sapiens, UniProt Q8NBP7).
T1 construct: biotin (biotinylated)
Description: PCSK9 Alexa FRET Standard assay (displacement of AlexaFluor647 tagged cyclic peptide Reagent A). Conditions: 0.5 nM PCSK9, 20 nM AF cyclic peptide Reagent A. The method, then: A solution containing 1 nM biotinylated PCSK9+2.5 nM Lance Streptavidin Europium (Strep-Eu) was made in 50 mM HEPES pH 7.4, 0.15 M NaCl, 5 mM CaCl2), 0.01% BSA, and 0.01% Surfactant P20. A separate solution containing 40 nM of the AlexaFluor tagged cyclic peptide was made in the same buffer system. An Echo was used to transfer 0.750 ul of compound to an assay plate followed by the addition of 15 ul of PCSK9+Stept-Eu and 15 ul of AF peptide. The final assay volume was 30.750 ul containing 0.5 nM PCSK9, 1.25 nM Strep-Eu, and 20 nM AF cyclic peptide. The reaction was incubated at room temperature for at least two hours prior to fluorescence measurements using an Envision Multilabel Reader. IC50 values were determined by fitting data to a sigmoidal dose-response curve using nonlinear regression. Ki was then calculated from the IC50 and the KD of AF cyclic peptide. Counts (B-counts) of the europium-labeled PCSK9 were followed to observe if compounds were […]. A fall off of the B-counts likely indicated a false positive of inhibition. Data from this procedure was reported as “A=‘numerical value’ (nanomolar)”

The target in assay [2] is T1, PCSK9. Description: PCSK9 Alexa FRET Plus assay (displacement of AlexaFluor647 tagged cyclic peptide Reagent B). The conditions noted are these: 0.5 nM PCSK9, 960 nM AF cyclic peptide Reagent B. The method, then: A solution containing 1 nM biotinylated PCSK9+2.5 nM Lance Streptavidin Europium (Strep-Eu) was made in 50 mM HEPES pH 7.4, 0.15 M NaCl, 5 mM CaCl2), 0.01% BSA, and 0.01% Surfactant P20. A separate solution containing 1920 nM of the AlexaFluor tagged cyclic peptide was made in the same buffer system. An Echo was used to transfer 0.075 ul of compound plus 0.675 ul of DMSO to each well of an assay plate followed by the addition of 15 ul of PCSK9+Stept-Eu and 15 ul of AF peptide. The final assay volume was 30.750 ul containing 0.5 nM PCSK9, 1.25 nM Strep-Eu, and 960 nM AF cyclic peptide. The reaction was incubated at room temperature for at least two hours prior to fluorescence measurements using an Envision Multilabel Reader. IC50 values were determined by fitting data to a sigmoidal dose-response curve using nonlinear regression. Ki was then calculated from the IC50 and the KD of AF cyclic peptide. Counts (B-counts) of the europium-labeled PCSK9 were followed to observe if compounds were adversely affecting PCSK9. A fall off of the B-counts likely indicated a false positive of inhibition. Data from this procedure was reported as “P=‘numerical value’ (nanomolar)”

Assay [3] has as its target human PCSK9 / human LDLR EGFa domain (Homo sapiens, UniProt Q8NBP7). Description: TR-FRET assay of inhibition of the PCSK9-LDLR protein-protein interaction. Conditions: 20 nM human PCSK9, 20 nM human LDLR EGFa domain, 2 hours room temperature. The essentials:
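Biotinylated PCSK9 (20 nM) and His-tagged LDLR EGFa domain (20 nM) were incubated 2 h at room temperature with 5 nM Ulight-streptavidin and 5 nM Eu-anti-His in HEPES/NaCl/CaCl2 buffer with 0.01% BSA and 0.01% P20. TR-FRET was read; half-maximal inhibitory concentrations came from 4-parameter dose-response fits.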
In general terms: TR-FRET usually uses a lanthanide donor and a delayed reading to cut background.

T1 sequence (Q8NBP7 153-692): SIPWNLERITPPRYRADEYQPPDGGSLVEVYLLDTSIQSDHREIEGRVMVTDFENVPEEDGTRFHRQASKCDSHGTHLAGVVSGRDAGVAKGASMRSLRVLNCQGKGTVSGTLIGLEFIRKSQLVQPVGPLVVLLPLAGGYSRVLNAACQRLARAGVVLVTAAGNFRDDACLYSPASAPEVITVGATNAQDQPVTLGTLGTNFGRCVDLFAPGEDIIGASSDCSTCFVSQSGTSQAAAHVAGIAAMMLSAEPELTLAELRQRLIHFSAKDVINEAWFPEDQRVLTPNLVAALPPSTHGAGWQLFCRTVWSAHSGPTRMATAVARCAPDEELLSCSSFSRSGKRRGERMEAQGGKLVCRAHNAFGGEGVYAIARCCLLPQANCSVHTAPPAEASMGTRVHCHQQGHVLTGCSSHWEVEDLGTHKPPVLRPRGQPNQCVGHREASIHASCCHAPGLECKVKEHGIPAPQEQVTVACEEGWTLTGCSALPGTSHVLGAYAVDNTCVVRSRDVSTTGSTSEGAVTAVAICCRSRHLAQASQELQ
Chain of human PCSK9 / human LDLR EGFa domain (Q8NBP7 153-692): as above

The term IC50 denotes the concentration at which inhibition is half-maximal. On to `C[C@@H]1NC(=O)CCSCc2cccc(c2)CSCCNC(=O)[C@@H]2CCCN2C(=O)[C@H](Cc2ccccc2)NC(=O)[C@H](C)NC(=O)[C@@H]2CCCN2C(=O)[C@H](Cc2c[nH]c3ccc(F)cc23)NC(=O)[C@H](Cc2c[nH]c3ccc(F)cc23)NC(=O)[C@@H](C)NC1=O` [Compound 062] (cyclo(AFP[X1]A[dA][Trp(5-F)][Trp(5-F)]P)), for which the IC50 is 100 to 1000 nM at PCSK9 [1], 1 to 100 nM at PCSK9 [2] and 1 to 100 nM in assay [3].
As to `C[C@@H]1NC(=O)CCSCc2cccc(c2)CSCCNC(=O)[C@@H]2CCCN2C(=O)[C@H](Cc2ccc3ccccc3c2)NC(=O)[C@H](C)NC(=O)[C@@H]2CCCCN2C(=O)[C@H](Cc2c[nH]c3ccc(F)cc23)NC(=O)[C@H](Cc2c[nH]c3ccc(F)cc23)NC(=O)[C@@H](C)NC1=O` [Compound 089] (cyclo([2Nal]P[X1]A[dA][Trp(5-F)][Trp(5-F)][Pip]A)), the concentration for half-maximal inhibition (IC50) (at PCSK9 [1]; at PCSK9 [2]; in assay [3]) was 1 to 100 nM in each case.

Values taken from patent US11814445B2, “Cyclic polypeptides for PCSK9 inhibition” (Ra Pharmaceuticals, Inc., priority 2018, dated 2023).
